Legend:
Test in all cases: relative viability (nuclei count vs DMSO), 5 days (fraction); higher = more cells survive
A549 = system: A549
Method in brief: (§1)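 A single step with final 0.05% Triton X-100, 1% formaldehyde and 1 ug/ml Hoechst fixed the cells and stained nuclei 5 days after treatment. Lung cancer cell lines in 1536-well plates had been treated by pin tool the day after seeding with one drug alone or a fixed anchor-drug dose plus five library-drug doses (not always all listed) in √10 steps, and nuclei were counted on 4× images. Relative viability is the ratio of nuclei in treated wells to nuclei in vehicle wells, taken as the median of duplicate plates.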

Calu-6 = system: Calu-6
Method in brief: as §1

EBC-1 = system: EBC-1
Method in brief: as §1

HCC-15 = system: HCC-15
Method in brief: as §1

IA-LM = system: IA-LM
Method in brief: as §1

LCLC-103H = system: LCLC-103H
Method in brief: as §1

NCI-H1299 = system: NCI-H1299
Method in brief: as §1

NCI-H1703 = system: NCI-H1703
Method in brief: as §1

UMC-11 = system: UMC-11
Method in brief: as §1

## C=C1C(=O)O[C@@H](CCCCCCCC)[C@@H]1C(=O)O [C-75] + Cc1nc(NC(=O)N2CCC[C@H]2C(N)=O)sc1-c1ccnc(C(C)(C)C(F)(F)F)c1 [Alpelisib] (partner 2 µM)
A549; first compound 0.08 µM
  relative viability: 0.828
A549; first compound 0.253 µM
  relative viability: 0.909
A549; first compound 0.8 µM
  relative viability: 0.824
A549; first compound 2.53 µM
  relative viability: 0.579
A549; first compound 8 µM
  relative viability: 0.716
Calu-6; first compound 0.08 µM
  relative viability: 1.04
Calu-6; first compound 0.253 µM
  relative viability: 0.926
Calu-6; first compound 0.8 µM
  relative viability: 0.983
Calu-6; first compound 2.53 µM
  relative viability: 0.796
Calu-6; first compound 8 µM
  relative viability: 0.932
EBC-1; first compound 0.08 µM
  relative viability: 0.904
EBC-1; first compound 0.253 µM
  relative viability: 0.763
EBC-1; first compound 0.8 µM
  relative viability: 0.792
EBC-1; first compound 2.53 µM
  relative viability: 0.7
EBC-1; first compound 8 µM
  relative viability: 0.712
HCC-15; first compound 0.08 µM
  relative viability: 0.891
HCC-15; first compound 0.253 µM
  relative viability: 0.862
HCC-15; first compound 0.8 µM
  relative viability: 0.873
HCC-15; first compound 2.53 µM
  relative viability: 0.641
HCC-15; first compound 8 µM
  relative viability: 0.871
IA-LM; first compound 0.08 µM
  relative viability: 0.71
IA-LM; first compound 0.253 µM
  relative viability: 0.815
IA-LM; first compound 0.8 µM
  relative viability: 0.74
IA-LM; first compound 2.53 µM
  relative viability: 0.648
IA-LM; first compound 8 µM
  relative viability: 0.761
LCLC-103H; first compound 0.08 µM
  relative viability: 0.986
LCLC-103H; first compound 0.253 µM
  relative viability: 0.94
LCLC-103H; first compound 0.8 µM
  relative viability: 1.01
LCLC-103H; first compound 2.53 µM
  relative viability: 0.89
LCLC-103H; first compound 8 µM
  relative viability: 0.908
NCI-H1299; first compound 0.08 µM
  relative viability: 1.04
NCI-H1299; first compound 0.253 µM
  relative viability: 0.979
NCI-H1299; first compound 0.8 µM
  relative viability: 1.1
NCI-H1299; first compound 2.53 µM
  relative viability: 0.966
NCI-H1299; first compound 8 µM
  relative viability: 1.07
NCI-H1703; first compound 0.08 µM
  relative viability: 0.337
NCI-H1703; first compound 0.253 µM
  relative viability: 0.348
NCI-H1703; first compound 0.8 µM
  relative viability: 0.325
NCI-H1703; first compound 2.53 µM
  relative viability: 0.28
NCI-H1703; first compound 8 µM
  relative viability: 0.327
UMC-11; first compound 0.08 µM
  relative viability: 0.927
UMC-11; first compound 0.253 µM
  relative viability: 1.15
UMC-11; first compound 0.8 µM
  relative viability: 0.97
UMC-11; first compound 2.53 µM
  relative viability: 0.909
UMC-11; first compound 8 µM
  relative viability: 0.786

## CC1(C)CCC(c2ccc(Cl)cc2)=C(CN2CCN(c3ccc(C(=O)NS(=O)(=O)c4ccc(N[C@H](CCN5CCOCC5)CSc5ccccc5)c(S(=O)(=O)C(F)(F)F)c4)cc3)CC2)C1 [Navitoclax] + CS(=O)(=O)N1CCN(Cc2cc3nc(-c4cccc5[nH]ncc45)nc(N4CCOCC4)c3s2)CC1 [Pictilisib] (partner 1 µM)
A549; first compound 0.005 µM
  relative viability: 0.418
A549; first compound 0.01581 µM
  relative viability: 0.425
A549; first compound 0.05 µM
  relative viability: 0.685
A549; first compound 0.1581 µM
  relative viability: 0.51
A549; first compound 0.5 µM
  relative viability: 0.504
Calu-6; first compound 0.005 µM
  relative viability: 0.891
Calu-6; first compound 0.01581 µM
  relative viability: 1.03
Calu-6; first compound 0.05 µM
  relative viability: 1.01
Calu-6; first compound 0.1581 µM
  relative viability: 0.775
Calu-6; first compound 0.5 µM
  relative viability: 0.752
EBC-1; first compound 0.005 µM
  relative viability: 0.411
EBC-1; first compound 0.01581 µM
  relative viability: 0.378
EBC-1; first compound 0.05 µM
  relative viability: 0.448
EBC-1; first compound 0.1581 µM
  relative viability: 0.575
EBC-1; first compound 0.5 µM
  relative viability: 0.138
HCC-15; first compound 0.005 µM
  relative viability: 0.733
HCC-15; first compound 0.01581 µM
  relative viability: 0.769
HCC-15; first compound 0.05 µM
  relative viability: 0.614
HCC-15; first compound 0.1581 µM
  relative viability: 0.726
HCC-15; first compound 0.5 µM
  relative viability: 0.667
IA-LM; first compound 0.005 µM
  relative viability: 0.466
IA-LM; first compound 0.01581 µM
  relative viability: 0.321
IA-LM; first compound 0.05 µM
  relative viability: 0.404
IA-LM; first compound 0.1581 µM
  relative viability: 0.457
IA-LM; first compound 0.5 µM
  relative viability: 0.292
LCLC-103H; first compound 0.005 µM
  relative viability: 0.588
LCLC-103H; first compound 0.01581 µM
  relative viability: 0.611
LCLC-103H; first compound 0.05 µM
  relative viability: 0.664
LCLC-103H; first compound 0.1581 µM
  relative viability: 0.611
LCLC-103H; first compound 0.5 µM
  relative viability: 0.799
NCI-H1299; first compound 0.005 µM
  relative viability: 0.717
NCI-H1299; first compound 0.01581 µM
  relative viability: 0.943
NCI-H1299; first compound 0.05 µM
  relative viability: 0.874
NCI-H1299; first compound 0.1581 µM
  relative viability: 0.822
NCI-H1299; first compound 0.5 µM
  relative viability: 0.819
NCI-H1703; first compound 0.005 µM
  relative viability: 0.244
NCI-H1703; first compound 0.01581 µM
  relative viability: 0.28
NCI-H1703; first compound 0.05 µM
  relative viability: 0.263
NCI-H1703; first compound 0.1581 µM
  relative viability: 0.239
NCI-H1703; first compound 0.5 µM
  relative viability: 0.245
UMC-11; first compound 0.005 µM
  relative viability: 0.743
UMC-11; first compound 0.01581 µM
  relative viability: 0.809
UMC-11; first compound 0.1581 µM
  relative viability: 0.741
UMC-11; first compound 0.5 µM
  relative viability: 0.516

Source: the supplement of paper PMC10307832
